In the supplement of paper PMC10733146:

Experiments:
Test in all cases: viability relative to DMSO control (fraction); higher = less drug effect (more viable cells)
Settings in all cases: 48 h
[1] = tested on: primary ALL patient cells (S088)
How it was run: (§1)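 The cells were primary mononuclear tumour cells, either fresh or cryopreserved, isolated by Ficoll from blood or bone marrow or derived from processed lymph node. Each well of a 384-well plate received 4 × 10^4 cells onto compounds pre-plated at five concentrations, with one well per concentration. The medium was RPMI-1640 with penicillin/streptomycin, L-glutamine and human serum, and plates stood at 37 °C and 5% CO2 for 48 h. Viability is reported as CellTiter-Glo luminescence relative to the median of 16 inner DMSO wells.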

[2] = tested on: primary AML patient cells (S006)
How it was run: as §1

[3] = tested on: primary AML patient cells (S009)
How it was run: as §1

[4] = tested on: primary AML patient cells (S011)
How it was run: as §1

[5] = tested on: primary AML patient cells (S021)
How it was run: as §1

[6] = tested on: primary AML patient cells (S055)
How it was run: as §1

[7] = tested on: primary AML patient cells (S060)
How it was run: as §1

[8] = tested on: primary AML patient cells (S081)
How it was run: as §1

[9] = tested on: primary B-PLL patient cells (S016)
How it was run: as §1

[10] = tested on: primary DLBCL patient cells (S049)
How it was run: as §1

[11] = tested on: primary DLBCL patient cells (S076)
How it was run: as §1

[12] = tested on: primary DLBCL patient cells (S082)
How it was run: as §1

[13] = tested on: primary FL patient cells (S087)
How it was run: as §1

[14] = tested on: primary MCL patient cells (S041)
How it was run: as §1

[15] = tested on: primary MCL patient cells (S063)
How it was run: as §1

[16] = tested on: primary T-NHL patient cells (S058)
How it was run: as §1

[17] = tested on: primary T-PLL patient cells (S008)
How it was run: as §1

For `COc1cccc2c1C(=O)c1c(O)c3c(c(O)c1C2=O)C[C@@](O)(C(=O)CO)C[C@@H]3O[C@H]1C[C@H](N)[C@H](O)[C@H](C)O1` [Doxorubicin], the viability ([1]; 0.0016 µM) was 1.05, the viability ([1]; 0.008 µM) was 1.02 and the viability ([1]; 0.04 µM) was 0.828. The viability ([1]; 0.2 µM) was 0.221, the viability ([1]; 1 µM) was 0.0329 and the viability ([2]; 0.0016 µM) was 1.02. For the same compound, the viability ([2]; 0.008 µM) was 1.05, the viability ([2]; 0.04 µM) was 0.788 and the viability ([2]; 0.2 µM) was 0.32. For the same compound, the viability ([2]; 1 µM) was 0.0625, the viability ([3]; 0.0016 µM) was 1.07 and the viability ([3]; 0.008 µM) was 0.994. The viability ([3]; 0.04 µM) was 0.934, the viability ([3]; 0.2 µM) was 0.644 and the viability ([3]; 1 µM) was 0.221. The viability ([4]; 0.0016 µM) was 1.05, the viability ([4]; 0.008 µM) was 1.04 and the viability ([4]; 0.04 µM) was 0.973. For the same compound, the viability ([4]; 0.2 µM) was 0.507, the viability ([4]; 1 µM) was 0.0215 and the viability ([5]; 0.0016 µM) was 0.994. For the same compound, the viability ([5]; 0.008 µM) was 1.01, the viability ([5]; 0.04 µM) was 0.929 and the viability ([5]; 0.2 µM) was 0.438. The viability ([5]; 1 µM) was 0.182, the viability ([6]; 0.0016 µM) was 1.02 and the viability ([6]; 0.008 µM) was 0.99. For the same compound, the viability ([6]; 0.04 µM) was 1.02, the viability ([6]; 0.2 µM) was 0.947 and the viability ([6]; 1 µM) was 0.487. The viability ([7]; 0.0016 µM) was 1.03, the viability ([7]; 0.008 µM) was 1.05 and the viability ([7]; 0.04 µM) was 1.04. It also gave a viability ([7]; 0.2 µM) of 1.16, a viability ([7]; 1 µM) of 0.124 and a viability ([8]; 0.0016 µM) of 1.05. The viability ([8]; 0.008 µM) was 1.09, the viability ([8]; 0.04 µM) was 1.12 and the viability ([8]; 0.2 µM) was 1.18. For the same compound, the viability ([8]; 1 µM) was 0.0358, the viability ([9]; 0.0016 µM) was 1.09 and the viability ([9]; 0.008 µM) was 0.847. It also gave a viability ([9]; 0.04 µM) of 0.175, a viability ([9]; 0.2 µM) of 0.0427 and a viability ([9]; 1 µM) of 0.0239. The viability ([10]; 0.0016 µM) was 1.14, the viability ([10]; 0.008 µM) was 1 and the viability ([10]; 0.04 µM) was 0.827. It also gave a viability ([10]; 0.2 µM) of 0.3, a viability ([10]; 1 µM) of 0.0345 and a viability ([11]; 0.0016 µM) of 1.05. It also gave a viability ([11]; 0.008 µM) of 1.1, a viability ([11]; 0.04 µM) of 0.822 and a viability ([11]; 0.2 µM) of 0.453. It also gave a viability ([11]; 1 µM) of 0.034, a viability ([12]; 0.0016 µM) of 1.11 and a viability ([12]; 0.008 µM) of 1.1. The viability ([12]; 0.04 µM) was 0.945, the viability ([12]; 0.2 µM) was 0.878 and the viability ([12]; 1 µM) was 0.0843. For the same compound, the viability ([13]; 0.0016 µM) was 1.04, the viability ([13]; 0.008 µM) was 1.03 and the viability ([13]; 0.04 µM) was 0.98. For the same compound, the viability ([13]; 0.2 µM) was 0.776, the viability ([13]; 1 µM) was 0.584 and the viability ([14]; 0.0016 µM) was 0.994. For the same compound, the viability ([14]; 0.008 µM) was 1, the viability ([14]; 0.04 µM) was 0.942 and the viability ([14]; 0.2 µM) was 0.488. For the same compound, the viability ([14]; 1 µM) was 0.0259, the viability ([15]; 0.0016 µM) was 1.01 and the viability ([15]; 0.008 µM) was 0.98. It also gave a viability ([15]; 0.04 µM) of 0.997, a viability ([15]; 0.2 µM) of 0.735 and a viability ([15]; 1 µM) of 0.0566. It also gave a viability ([16]; 0.0016 µM) of 1.03, a viability ([16]; 0.008 µM) of 0.96 and a viability ([16]; 0.04 µM) of 0.823. For the same compound, the viability ([16]; 0.2 µM) was 0.525, the viability ([16]; 1 µM) was 0.145 and the viability ([17]; 0.0016 µM) was 1.04. The viability ([17]; 0.008 µM) was 1.15, the viability ([17]; 0.04 µM) was 0.972 and the viability ([17]; 0.2 µM) was 0.958. It also gave a viability ([17]; 1 µM) of 0.607.
